US7709526B2, “Use of cyclolignans and new cyclolignans” (Biovitrum AB, priority 2001, dated 2010)

How the values were obtained:
IGF-1R = IGF-1R (Homo sapiens, UniProt P08069); experiment: IGF-1R phosphorylation/autophosphorylation in intact FM55 melanoma cells (immunoprecipitation, Western blotting, OD); assay type: cell-based; set-up: The cells were then isolated and subjected to immuno-precipitation of the IGF-1R; endogenous in cells; host or cells: FM55 melanoma cells; settings: for Level of IGF-1R phosphorylation in intact cells: OD, control cells = 100%
Sequence of IGF-1R (P08069 31-1367): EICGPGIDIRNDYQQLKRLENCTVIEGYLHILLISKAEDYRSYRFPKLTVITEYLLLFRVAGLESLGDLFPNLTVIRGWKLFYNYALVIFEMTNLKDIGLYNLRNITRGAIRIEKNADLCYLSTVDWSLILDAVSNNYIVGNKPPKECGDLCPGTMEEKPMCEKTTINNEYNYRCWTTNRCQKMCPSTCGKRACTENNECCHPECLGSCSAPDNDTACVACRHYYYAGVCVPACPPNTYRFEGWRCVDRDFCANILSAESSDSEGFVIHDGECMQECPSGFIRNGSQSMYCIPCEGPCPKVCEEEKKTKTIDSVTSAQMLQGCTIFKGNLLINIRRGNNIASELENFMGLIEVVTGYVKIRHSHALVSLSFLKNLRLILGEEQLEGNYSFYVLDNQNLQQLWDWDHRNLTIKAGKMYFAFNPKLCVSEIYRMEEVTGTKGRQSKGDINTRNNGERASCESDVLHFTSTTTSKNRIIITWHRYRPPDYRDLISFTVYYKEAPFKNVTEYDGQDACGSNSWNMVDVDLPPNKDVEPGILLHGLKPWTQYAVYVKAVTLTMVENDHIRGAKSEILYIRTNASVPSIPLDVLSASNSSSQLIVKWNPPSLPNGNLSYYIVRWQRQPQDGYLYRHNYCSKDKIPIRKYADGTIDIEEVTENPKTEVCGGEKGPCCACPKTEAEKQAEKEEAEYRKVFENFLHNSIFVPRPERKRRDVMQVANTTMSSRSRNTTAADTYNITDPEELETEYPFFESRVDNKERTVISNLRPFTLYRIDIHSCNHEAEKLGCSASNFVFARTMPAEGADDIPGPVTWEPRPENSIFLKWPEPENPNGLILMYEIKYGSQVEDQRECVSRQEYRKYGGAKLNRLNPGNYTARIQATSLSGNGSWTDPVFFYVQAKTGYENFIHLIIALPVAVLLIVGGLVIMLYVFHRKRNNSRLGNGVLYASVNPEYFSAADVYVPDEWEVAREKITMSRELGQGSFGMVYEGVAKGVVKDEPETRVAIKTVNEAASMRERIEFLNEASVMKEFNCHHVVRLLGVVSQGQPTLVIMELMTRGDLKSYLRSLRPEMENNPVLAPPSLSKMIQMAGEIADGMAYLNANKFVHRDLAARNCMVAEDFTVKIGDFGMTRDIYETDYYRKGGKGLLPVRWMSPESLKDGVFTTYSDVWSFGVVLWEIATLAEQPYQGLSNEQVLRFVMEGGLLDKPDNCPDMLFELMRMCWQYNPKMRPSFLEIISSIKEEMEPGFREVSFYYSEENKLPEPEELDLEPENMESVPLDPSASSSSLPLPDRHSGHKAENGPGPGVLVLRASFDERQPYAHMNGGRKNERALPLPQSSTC
Method: The isolated cells were lyzed in 10 ml ice-cold PBSTDS containing protease inhibitors (Carlberg, M., et al., J Biol Chem 271:17453-17462, 1996). 50 μl protein A or G agarose was added in 1 ml sample and incubated for 15 min at 4° C. on an orbital shaker. After centrifugation for 10 min at 10,000 r/min at 4° C. the supernatant was saved. The protein content was determined by a dye-binding assay with a reagent purchased from Bio-Rad. Bovine serum albumin was used as a standard. 15 μl Protein G Plus agarose and 5 μl anti-IGF-1R were added. After a 3 h incubation at 4° C. on an orbital shaker the precipitate was collected by pulse centrifugation in a micro centrifuge at 14,000×g for 10 s. The supernatant was discarded and the pellet was washed 3 times with PBSTDS.
Protein samples were solved in a 2×-sample buffer containing Laemmli buffer and 0.5% […] and boiled for 5 min at 96° C. Samples were separated by SDS-PAGE with a 4% stacking gel and 7.5% separation gel. Molecular weight markers (Bio Rad, Sweden) were run simultaneously in all experiments.
Following SDS-PAGE the proteins were transferred overnight to nitro-cellulose membranes (Hybond, Amersham, UK) and then blocked for 1 h at room temperature in a solution of 4% skimmed milk powder and 0.02% Tween 20 in PBS, pH 7.5. Incubations with the primary antibodies were performed for 1 h at room temperature, followed by 3 washes with PBS with Tween and incubation with the second antibody for 1 h room temperature. After another 3 washes the membranes were incubated with Streptavidin-labelled horseradish peroxidase for 30 min and then detected using Amersham ECL system (Amersham, UK) The films were scanned by Fluor-S (BioRad).
Melanoma cells (line FM55) were seeded in 6-cm dishes, at a concentration of 10,000 cells/cm^2 in Minimal Essential Medium supplemented with 10% fetal calf serum (FCS). […] Treatment with 0 μM represents untreated controls. The cells were then isolated and subjected to immuno-precipitation of the IGF-1R. The immunoprecipitates, containing purified IGF-1R, were fractionated by gel electrophoresis. Phosphorylation of IGF-1R was detected by an anti-phosphotyrosine antibody using Western blotting. The obtained signals represent phosphorylated IGF-1R and the intensity of signals represents amounts of phosphorylated IGF-1R. Details of the methods used are described above. The intensities are quantified by a scanner, which measures the optical density (OD) of the signals. For the control cells the OD is set at 100%. The blank (OD 0%) represents the background. The results given in Table 1 below are mean values of 3 experiments.
FM 55 melanoma cells were cultured in the same way as described in Experiment 1. When reaching a density of 65,000 cells/cm^2 in the dishes, they were treated for 1 h with 0.05 μM podophyllotoxin, deoxypodophyllotoxin, acetylpodophyllotoxin, epipodophyllotoxin, 4′-demethyl-podophyllotoxin and podophyllotoxone. The cells were then harvested for assay and quantification of IGF-1R autophosphorylation as described above. The values shown in Table 2 represent means of 3 experiments.

[1] = target: receptor of epidermal growth factor (Homo sapiens, UniProt P00533); experiment: Tyrosine phosphorylation of epidermal growth factor receptor; assay type: cell-based
Sequence of receptor of epidermal growth factor (P00533 25-1210): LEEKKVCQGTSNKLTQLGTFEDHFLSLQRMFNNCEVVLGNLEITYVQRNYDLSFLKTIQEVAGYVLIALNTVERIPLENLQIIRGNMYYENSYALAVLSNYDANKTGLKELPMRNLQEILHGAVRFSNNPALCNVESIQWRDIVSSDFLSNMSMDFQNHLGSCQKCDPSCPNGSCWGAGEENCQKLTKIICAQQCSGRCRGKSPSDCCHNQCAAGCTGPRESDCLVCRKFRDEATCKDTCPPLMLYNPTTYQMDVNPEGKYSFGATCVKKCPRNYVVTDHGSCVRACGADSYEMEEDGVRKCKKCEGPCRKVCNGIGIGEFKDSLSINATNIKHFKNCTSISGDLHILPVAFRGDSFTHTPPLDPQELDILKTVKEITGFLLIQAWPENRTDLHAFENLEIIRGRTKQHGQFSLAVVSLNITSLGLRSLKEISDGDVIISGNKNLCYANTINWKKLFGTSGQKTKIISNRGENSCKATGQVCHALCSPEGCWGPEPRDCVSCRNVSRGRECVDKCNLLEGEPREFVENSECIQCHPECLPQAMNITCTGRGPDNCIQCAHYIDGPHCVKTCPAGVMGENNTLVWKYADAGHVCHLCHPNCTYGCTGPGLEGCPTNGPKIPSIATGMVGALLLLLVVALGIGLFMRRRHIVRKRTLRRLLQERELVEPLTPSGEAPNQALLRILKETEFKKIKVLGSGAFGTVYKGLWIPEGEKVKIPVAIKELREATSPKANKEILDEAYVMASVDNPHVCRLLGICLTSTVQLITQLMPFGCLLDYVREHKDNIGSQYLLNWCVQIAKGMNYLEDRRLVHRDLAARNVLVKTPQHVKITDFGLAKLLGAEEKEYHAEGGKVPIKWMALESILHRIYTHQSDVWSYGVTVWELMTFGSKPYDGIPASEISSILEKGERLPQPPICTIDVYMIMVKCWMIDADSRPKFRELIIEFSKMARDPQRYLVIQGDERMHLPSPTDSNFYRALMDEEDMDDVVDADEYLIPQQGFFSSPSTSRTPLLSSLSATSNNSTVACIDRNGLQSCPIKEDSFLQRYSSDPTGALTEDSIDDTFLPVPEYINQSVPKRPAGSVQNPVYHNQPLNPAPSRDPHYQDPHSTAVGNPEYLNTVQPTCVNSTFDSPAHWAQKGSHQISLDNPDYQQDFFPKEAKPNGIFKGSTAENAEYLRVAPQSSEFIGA

rats = settings: cited from earlier work
[2] = test system: K562/S chronic myeloid leukemia cells; experiment: Viability of leukemia cells, K562/S; assay type: cell-based, human; settings: Homo sapiens, 72 h, read-out: IC50 for viability of leukemia cell lines
Method: The human chronic myeloid leukemia K562/S and K562/Vcr30 lines and the acute myeloid leukemia cell lines HL60/0 and HL60/Nov were obtained from ATCC. The K562/S and HL60/0 are wild type (non-resistant) cells, whereas K562/Vcr30 and HL60/Nov are cytostatic-resistant sublines. All leukemia cell lines were cultured in RPMI 1640 medium supplemented with 10% fetal bovine serum and with 2 mM glutamine, 1% benzyl-penicillin and streptomycin. The cells were grown in tissue culture flasks maintained at 95% air/5% CO2 atmosphere at 37° C. in a humidified incubator. For the experiments 25,000 cells were cultured in 60-mm plastic dishes or 96-well plastic plates. The experiments on leukemia cells were performed in collaboration with Associate professor Sigurd Vitols, Department of Pharmacology, Karolinska Hospital (Stockholm, Sweden).
(§1) Cell proliferation kit II (Roche Inc.) is based on calorimetric change of the yellow tetrazolium salt XTT in orange formazan dye by the respiratory chain of viable cells (Roehm, N W, et al., J Immunol Methods 142:257-265, 1991). Cells seeded at a concentration of 5000/well in 100 μl medium in a 96-well plate were treated with different drugs in the given concentration. After 24 or 48 h the cells were incubated, according to the manufacturer's protocol, with XTT labelling mixture. After 4 h the formazan dye is quantified using a scanning multiwell spectrophotometer with a 495-nm filter. The absorbance is directly correlated with number of viable cells. The standard absorbance curve was drawn by means of untreated cells seeded at a concentration of from 1000 to 10 000 cells/well with an increasing rate of 1000 cells/well. All standards and experiments were performed in triplicates.
The leukemia cell lines K562/S, K562/Vcr 30, HL60/0 and HL60/Nov were proven to express the IGF-1R. This was assayed by Western blotting analysis, as described in Methods and Experiment 1 and 2. The 4 leukemia cell lines were seeded in 96-well plates (medium volume in a well was 100 μl), in RPMI40 medium supplemented with fetal calf serum. After 24 h podophyllotoxin, deoxypodophyllotoxin and other derivatives were added at different concentrations for 72 h. Cell viability was then assayed (see above). IC50 values for each inhibitor and cell lines are shown below (Table 5). The results are based on 3 different experiments.

BE melanoma cells = experiment: Cell viability (XTT), BE; assay type: cell-based; settings: Homo sapiens, 48 h
Method: as §1
5 different types of cell lines were seeded in 96-well plates (medium volume in a well was 100 μl), at a concentration of 10,000 cells/cm^2 in Minimal Essential Medium supplemented with fetal calf serum. When the cells had reached a concentration of 65,000 cells/cm^2, they were treated with different doses of podophyllotoxin and deoxypodophyllotoxin for 48 h. Cell viability was then assayed (see above). […]

Water solubility = assay type: physicochemical
[3] = test system: receptor of fibroblast growth factor; experiment: Tyrosine phosphorylation of fibroblast growth factor receptor; assay type: cell-based

Compound: COc1cc([C@@H]2c3cc4c(cc3[C@H](O)[C@H]3COC(=O)[C@H]23)OCO4)cc(OC)c1OC [Podophyllotoxin, podophyllotoxin]
- inhibition of IGF-1R phosphorylation (in words) (IGF-1R; FM55 cells, 0.05 μM, 1 h): potent inhibitors
- Inhibitory effect on IGF-1R autophosphorylation in intact cells in relation to podophyllotoxin, Relative potency (IGF-1R; FM55 cells, 0.05 μM, 1 h, podophyllotoxin = 1, mean of 3): 1
- Level of IGF-1R phosphorylation in intact cells (IGF-1R; FM55 cells, 1 μM, 1 h, mean of 3): 8%
- Level of IGF-1R phosphorylation in intact cells (IGF-1R; FM55 cells, 15 μM, 1 h, mean of 3): 4%
- Level of IGF-1R phosphorylation in intact cells (IGF-1R; FM55 cells, 60 μM, 1 h, mean of 3): 2%
- effect on IGF-1R phosphorylation (in words) (IGF-1R; FM55 cells, 1, 15, 60 μM, genistein statement at 60 μM): almost completely blocks
- concentration sufficient to inactivate the IGF-1R, fold lower than for the anti-microtubule effect (IGF-1R; compared to anti-microtubule effect): 100 fold
- interference with tyrosine phosphorylation of the receptor of epidermal growth factor [1]: Neither do they interfere
- LD50 in rats (rats): 14 mg/kg
- IC50 [2]: 4 nM
- IC50 (BE melanoma cells): 50 nM
- water solubility (Water solubility): 100 to 200 µM
- interference with tyrosine phosphorylation of the receptor of fibroblast growth factor [3]: Neither do they interfere
